Data on one molecule can be found in patent US4931436A, “Condensed diazepinones, processes for preparing them and pharmaceutical compositions containing these compounds” (Dr. Karl Thomae GmbH, priority 1988, dated 1990).

One assay relates to heart rate. Nature of the assay: Inhibition of acetylcholine activity on heart rate. It is filed as in vivo, guinea pig. Particulars: Cavia porcellus, 5 min, read-out: log ED50, Heart. As to the method:
(§1) 5 minutes after the administration of the test substance, 10 mcg/kg of acetylcholine were simultaneously injected intravenously and intra-arterially into anaesthetised guinea pigs. The heart rate was recorded directly by extracorporeal derivation of the ECG, the expiration resistance according to Konzett-Rossler and contraction of the exposed bladder. In order to determine the inhibition of the acetylcholine activity on the organs under investigation, dosage/activity curves were recorded and from them -log ED50 values were determined.

Assay [1] concerns the target T1, muscarinic receptors (heart, atrium) (Rattus norvegicus, UniProt P10980).
T1 construct: from tissue; host or cells: heart (atrium, ventricle) of female rats, labelled in vivo
T1 sequence (P10980 1-466): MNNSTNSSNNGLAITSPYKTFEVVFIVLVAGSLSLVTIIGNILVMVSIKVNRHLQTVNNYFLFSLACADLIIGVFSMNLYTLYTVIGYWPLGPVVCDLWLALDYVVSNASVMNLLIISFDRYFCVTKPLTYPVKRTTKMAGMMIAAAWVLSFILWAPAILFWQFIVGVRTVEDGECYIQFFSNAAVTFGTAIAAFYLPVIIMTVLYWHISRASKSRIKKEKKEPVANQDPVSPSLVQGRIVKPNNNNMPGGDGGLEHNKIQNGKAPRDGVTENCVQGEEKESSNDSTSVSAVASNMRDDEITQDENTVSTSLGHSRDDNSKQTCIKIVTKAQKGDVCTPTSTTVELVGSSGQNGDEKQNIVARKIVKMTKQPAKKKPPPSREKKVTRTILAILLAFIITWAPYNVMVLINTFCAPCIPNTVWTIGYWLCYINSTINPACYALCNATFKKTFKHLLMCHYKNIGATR
Nature of the assay: Receptor binding test in vivo (3H-NMS), atrium. More on the design: species or system rat (female). The following applies: iv, 0.5 h, read-out: ID50, Heart, Atrium. As to the method: (§2) For these experiments, female rats with a body weight of about 200 g were used. Before the start of the experiment the animals were anaesthetised with a dose of 1.25 g/kg of urethane. The animals were given the dosage of test substance by i.v. injection. After 15 minutes, 113 ng/kg of ^3 H-N-methylscopolamine (^3 H-NMS) were given by the same route. After another 15 minutes the animals were killed and their heart, bronchi and lachrymal glands were taken out. These organs were dissolved in Soluene R and the radioactivity was measured. These measurements were taken as representing total binding. […] The ID50 values for the individual organs were determined from these experiments. […]

In assay [2] the target is T2, muscarinic receptors of the atrium (Cavia porcellus, UniProt H0VRN8).
T2 construct: isolated, spontaneously beating, right atrium; from tissue; host or cells: isolated spontaneously beating right atrium of the guinea pig
T2 sequence (H0VRN8 1-466): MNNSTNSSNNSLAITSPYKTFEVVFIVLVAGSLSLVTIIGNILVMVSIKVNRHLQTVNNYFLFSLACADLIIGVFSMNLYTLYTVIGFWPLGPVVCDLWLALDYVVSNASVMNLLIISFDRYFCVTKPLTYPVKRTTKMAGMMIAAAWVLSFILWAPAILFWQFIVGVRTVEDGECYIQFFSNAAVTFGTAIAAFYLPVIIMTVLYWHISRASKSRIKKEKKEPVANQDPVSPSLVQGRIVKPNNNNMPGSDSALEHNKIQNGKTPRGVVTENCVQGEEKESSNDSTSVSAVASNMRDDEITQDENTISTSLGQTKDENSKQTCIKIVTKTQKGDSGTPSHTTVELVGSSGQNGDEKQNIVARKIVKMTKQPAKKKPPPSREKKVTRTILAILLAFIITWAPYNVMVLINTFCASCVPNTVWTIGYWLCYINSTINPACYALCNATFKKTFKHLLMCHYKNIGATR
Put plainly: Dissociation constants (KB values) on the isolated spontaneously beating right atrium. More on the design: species or system guinea pig. The following applies: spontaneously beating atrium, guinea pig, methacholine, 30 minutes contact; read-out: KB, Heart. As to the method:
Dissociation constants (KB values) were determined "in vitro" on the ileum and spontaneously beating atrium of the guinea pig. The ileum was taken out and incubated in Krebs-Henseleit solution in an organ bath. Contractions were induced by increasing concentrations of methacholine (M) so that total concentration/activity curves could be recorded. M was then washed out, the test substance was added and kept in contact for 30 minutes and another concentration/activity curve was recorded with M.
Dissociation constants for the muscarinic receptors of the atrium were obtained in the manner described above.

Assay [3] concerns the target T3, muscarinic receptors (heart, ventricle) (Rattus norvegicus, UniProt P10980).
T3 construct: from tissue; host or cells: heart (atrium, ventricle) of female rats, labelled in vivo
T3 sequence (P10980 1-466): T1 sequence (P10980 1-466)
Put plainly: Receptor binding test in vivo (3H-NMS), ventricle. More on the design: species or system rat (female). The following applies: iv, 0.5 h, read-out: ID50, Heart, Ventricle. As to the method:
as §2

Another assay has as its system bladder. Nature of the assay: Inhibition of acetylcholine activity on the bladder (contraction of the exposed bladder). It is filed as in vivo, guinea pig. Particulars: Cavia porcellus, 5 min, read-out: log ED50, Bladder. As to the method:
as §1

Assay [4] has as its target muscarinic receptors (lachrymal glands) (Rattus norvegicus, UniProt P08483). Nature of the assay: in vivo. Particulars: iv, 0.5 h, read-out: ID50, Lachrymal glands. As to the method:
as §2

A further assay concerns the target T4, M1 (Rattus norvegicus, UniProt P08482).
T4 construct: from tissue; host or cells: living male THOM rat (site of action, sympathetic ganglia, is own knowledge)
T4 sequence (P08482 1-460): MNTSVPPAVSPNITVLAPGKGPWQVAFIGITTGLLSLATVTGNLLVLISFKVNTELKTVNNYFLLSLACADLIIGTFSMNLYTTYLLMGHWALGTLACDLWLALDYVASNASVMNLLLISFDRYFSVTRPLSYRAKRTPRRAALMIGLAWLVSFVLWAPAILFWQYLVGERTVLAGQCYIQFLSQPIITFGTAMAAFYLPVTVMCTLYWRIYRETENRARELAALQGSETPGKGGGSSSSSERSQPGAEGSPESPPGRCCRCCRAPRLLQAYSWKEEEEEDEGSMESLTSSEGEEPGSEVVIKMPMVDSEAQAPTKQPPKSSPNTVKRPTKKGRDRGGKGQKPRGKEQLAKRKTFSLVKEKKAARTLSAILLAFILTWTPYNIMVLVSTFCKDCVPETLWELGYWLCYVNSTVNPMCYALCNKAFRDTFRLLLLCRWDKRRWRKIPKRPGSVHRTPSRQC
Put plainly: M1 activity in the rat: inhibition of rise in blood pressure caused by McN-A-343. Particulars: iv, 5 min, read-out: M1 activity (rat) ED50. The class given is in vivo, rat (male THOM). As to the method:
The dosage of the substances which reduced either the vagal bradycardia (M2) or the rise in blood pressure (M1) by 50% was determined graphically. For the results see Table II.

Assay [5] relates to muscarinic receptors (bronchi). Nature of the assay: Receptor binding test in vivo (3H-NMS), bronchi. More on the design: species or system rat (female). Particulars: i.v., in vivo 3H-NMS binding, rat; 30 min. As to the method:
as §2

Chain of muscarinic receptors (lachrymal glands) (P08483 whole entry): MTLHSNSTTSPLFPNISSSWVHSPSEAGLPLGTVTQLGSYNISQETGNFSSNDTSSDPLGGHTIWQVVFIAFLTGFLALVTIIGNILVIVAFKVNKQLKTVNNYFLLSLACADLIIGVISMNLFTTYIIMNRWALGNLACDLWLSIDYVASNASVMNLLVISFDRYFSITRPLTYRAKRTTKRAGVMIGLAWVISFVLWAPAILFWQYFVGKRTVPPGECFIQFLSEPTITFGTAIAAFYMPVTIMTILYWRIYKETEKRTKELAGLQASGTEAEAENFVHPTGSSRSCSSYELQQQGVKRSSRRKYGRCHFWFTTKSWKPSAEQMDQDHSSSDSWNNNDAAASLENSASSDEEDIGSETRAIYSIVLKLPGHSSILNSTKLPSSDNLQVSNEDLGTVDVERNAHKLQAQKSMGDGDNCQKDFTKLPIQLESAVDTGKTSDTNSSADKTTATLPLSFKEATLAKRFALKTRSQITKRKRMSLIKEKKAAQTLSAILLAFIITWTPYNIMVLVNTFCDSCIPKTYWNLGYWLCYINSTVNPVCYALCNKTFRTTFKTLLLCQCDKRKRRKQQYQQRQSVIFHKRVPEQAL

Consider `CN1[C@@H]2CC[C@H]1C[C@@H](OC(=O)C(CO)c1ccccc1)C2` (some centres unmarked) [Substance Z, atropine, reference compound], for which the ED50 was 0.02 µmol/kg in the assay on heart rate; 0.08 mg/kg in assay [1]; 0.03 mg/kg in assay [3]; 0.0933 µmol/kg in the assay on bladder; 0.2 mg/kg in assay [4]; 0.016 mg/kg on M1. For the same molecule, the Kb in assay [2] came out at 1.41 nM. Further, the “ID50, Bronchi” value in assay [5] came out at 0.1 mg/kg.
